According to article PMC10331488, “Targeting apolipoprotein E and N-terminal amyloid β-protein precursor interaction improves cognition and reduces amyloid pathology in Alzheimer’s mice” (The Journal of Biological Chemistry, 2023):
Peptide text beside a SMILES is read from it.

Details: mouse, in vivo, ip
Description: Finally, to examine whether 6KApoEp did enter the brain to interact with APP, we aimed to identify 6KApoEp in vehicle- and 6KApoEp-treated APP/PS1/E2/E3/E4 mouse brains by Western blotting with antibody against LDLR binding domain (residues 133–152) of human apoE that is the analogous epitope as 6KApoEp except for 6K. […] Moreover, we examined the stability of 6KApoEp in the mouse plasma at different incubation times (i.e., 0, 3, 6, 12, and 24 h) at 37 °C by Western blotting using the same antibody.
The right five lanes denote a series of 6KApoEp calibration peptides (i.e., 20, 40, 80, 160, and 320 ng). Brain homogenates were obtained from APP/PS1/E2 mice that received vehicle (APP/PS1/E2-V) or 6KApoEp (APP/PS1/E2-6KApoEp), APP/PS1/E3 mice that received vehicle (APP/PS1/E3-V) or 6KApoEp (APP/PS1/E3-6KApoEp), and APP/PS1/E4 mice that received vehicle (APP/PS1/E4-V) or 6KApoEp (APP/PS1/E4-6KApoEp) for 3 months starting at 12 months of age. B, Western blotting data for the calibration graph were obtained from a series of 6KApoEp calibration peptides (i.e., 20, 40, 80, 160, and 320 ng). […] Western blotting data for (B) included each mouse (n = 4 per group with two of each sex), and quantitative data were averaged. […] D, the experiment was performed four times, and quantitative data were averaged (Table S23). […]

## CC(C)C[C@H](NC(=O)[C@H](CCCNC(=N)N)NC(=O)[C@@H](NC(=O)[C@H](CCCNC(=N)N)NC(=O)[C@H](CC(C)C)NC(=O)[C@H](CCCCN)NC(=O)[C@H](CCCCN)NC(=O)[C@H](CCCCN)NC(=O)[C@H](CCCCN)NC(=O)[C@H](CCCCN)NC(=O)[C@@H](N)CCCCN)C(C)C)C(=O)N[C@@H](C)C(=O)N[C@@H](CO)C(=O)N[C@@H](Cc1c[nH]cn1)C(=O)N[C@@H](CC(C)C)C(=O)N[C@@H](CCCNC(=N)N)C(=O)N[C@@H](CCCCN)C(=O)N[C@@H](CC(C)C)C(=O)N[C@@H](CCCNC(=N)N)C(=O)N[C@@H](CCCCN)C(=O)N[C@@H](CCCNC(=N)N)C(=O)N[C@@H](CC(C)C)C(=O)N[C@@H](CC(C)C)C(=O)N[C@@H](CCCNC(=N)N)C(=O)N[C@@H](CC(=O)O)C(=O)N[C@@H](C)C(=O)O [6KApoEp] (H-KKKKKKLRVRLASHLRKLRKRLLRDA-OH)
  Whole-brain 6KApoEp level relative to the daily dose (7.5 μg): 3.4-6.7 times the daily dose
